{"source": "patent US9821000B2", "about": "“Compounds, compositions and corresponding uses for preventing and/or treating of dyslipidemia” (CENTRE NATIONAL DE LA RECHERCHE SCIENTIFIQUE (CNRS), priority 2013, dated 2017)", "key": {"[1]": {"tested_on": "BRIN-BD11 pancreatic β-cells", "assay": "Cell viability test (propidium iodide, flow cytometry) of pancreatic β-cells lipo-intoxicated by palmitic acid", "assay_type": "cell-based, rat", "details": "BRIN-BD11, palmitic acid 200 μM, growing concentrations of compound", "procedure": "The BRIN-BD11 pancreatic β-cells were cultivated in controlled conditions or in the presence of an exogenous source of saturated fatty acids (palmitic acid 200 μM), as described by Dhayal& Morgan (2011) in order to generate conditions of lipotoxicity with or without addition of OAG or LPA.\nFIG. 7A—The proportion of dead cells was estimated in the absence (Ctrl) or in the presence of palmitic acid (Palm), for growing concentrations of OAG and LPA.\nThe lipidic species are prepared in ethanol and then complexed with bovine serum albumen (BSA initially devoid of fatty acids) by incubation for one hour at 37° C. […]\nThe pancreatic β-cell cell line (BRIN-BD11) of rats is cultivated in an RPMI-1640 complete medium containing glucose at 11 mM and supplemented with 10% (v/v) of fetal calf serum (FCS), 2 mM of L-glutamine, 100 U/mL of penicillin and 100 μg/mL of streptomycin. […] In the case of the controlled conditions, identical quantities of BSA and ethanol were then used. […] After incubation at 10 minutes on ice, the samples thus obtained are analyzed by cytometry in flux. A Beckman Coulter EPICS XL MCL is used for quantification, an FL3 channel serves to detect emissions from PI interposed in the DNA and the analysis is done by means of the software EXPO32 ADC (Applied Cytometry Systems, V 1.1 build 207)."}, "hem1Δ yeasts": {"tested_on": "hem1Δ yeasts", "assay": "Phospholipid fatty acid content by mass spectrometry in lipo-intoxicated hem1Δ yeasts", "assay_type": "cell-based, Saccharomyces cerevisiae", "details": "hem1Δ, SFA accumulation, 100 μM compound; for production of di-unsaturated phospholipids (level of PC species 36:2): 7 h", "procedure": "The hem1Δ yeasts were cultivated in standard conditions (control) or in conditions of SFA accumulation without (Ø) or with the addition of 100 μM of oleic acid, LPA or OAG as indicated.\nFIG. 6A—After 7 h of incubation, the phospholipids (PL) were extracted and the different species of phosphatidylcholine (PC), which constitute the predominantly present PL were analyzed by mass spectrometry in positive mode, according to Pineau et al. (2008).\nFIG. 6B—All the species of PL detectable in these conditions of mass spectrometry were analyzed to globally quantify the content in SFA forms.\nThe hem1Δ strain is cultivated in a YPG^A, YPG^+ or YPG^+ liquid medium+200 μM of compound to be tested in aerobic conditions, under stirring and at 28° C. for 7 h, starting from an initial cell concentration of 2·10^6 cells/mL. At the end of the culture, 10^8 cells are collected in order to carry out the extraction of the total lipids. After the cells have been put in suspension in 1 mL of distilled water at 4° C., 500 μL of glass beads (Ø 0.6 mm) are added and the whole mixture then undergoes three sequences of 20 seconds at 5000 rpm in a stirrer (the tubes are kept on ice between each of the three sequences). The cellular lysate then obtained, complemented with water for rinsing the beads (1 mL), is then transferred into a 40 mL glass tube (Corex™) and then the lipids are extracted by using a methanol:chloroform ratio of 2:1 (v/v). Initially, 6 mL of methanol are added and the entire mixture is vortexed for 30 seconds and then incubated for 15 minutes at 65° C. Once the mixture has been cooled to ambient temperature, […] of chloroform is added and then the entire mixture is again vortexed for 30 seconds before allowing the extraction to take place for 16 h. Subsequently, the sample is centrifuged for 12 minutes at 10000 g and then the supernatant is transferred into a new Corex™ tube. After the addition of 2 mL of chloroform and then 4 mL of distilled water, the entire mixture is vortexed for 30 seconds and then centrifuged for 8 minutes at 3000 g. After elimination of the resultant upper phase, the lower organic phase is collected in a hemolysis tube made of glass. Finally, the solvent is evaporated under a nitrogen stream at 80° C. to obtain total cell lipid samples.\nThe samples of total cell lipids are put back into suspension in 1 mL of dichloromethane in being vortexed for 30 seconds. The entire mixture is deposited on a silica column (BOND ELUT-SI, 100 mg 1 mL) preconditioned with 3 mL of methanol and then 2 mL of dichloromethane successively. The fraction retained by the column is then washed with 2 mL of dichloromethane and then 2 mL of acetone successively. Finally, 2 mL of a mixture of chloroform/methanol/water 50:45:5 (v/v/v) are deposited on the column and the phospholipids thus eluted are collected in a glass hemolysis tube. The solvent is evaporated under nitrogen at 80° C. to obtain the samples of cellular phospholipids.\nOnce put back into suspension in 100 μL of mixture Mix^− (isopropanol/acetonitrile/water 2:1:1 (v/v/v)+triethylamine 1% (v/v)) or mixture Mix^+ (isopropanol/acetonitrile/water 2:1:1 (v/v/v)+formic acid 1% (v/v)), the samples are analyzed by mass spectrometry (Electro Spray Ionization-Mass Spectrometry (ESI-MS)) in negative or positive mode respectively and the results obtained serve to analyze the fatty acid content of the different species of phospholipids."}, "QM strain": {"tested_on": "QM strain", "assay": "Toxicity test on QM strain (growth inhibition haloes)", "assay_type": "cell-based, Saccharomyces cerevisiae", "details": "after three days; for toxicity for cells that do not synthesize triglycerides: QM strain on agar medium; for haloes of growth inhibition (absence of colonies): QM strain, 5 μl drops on agar", "procedure": "5 μl drops of OAG, LPA or oleic acid were deposited, from stock solutions in the concentrations indicated, on the surface of an agar medium on which the QM strain had been preliminarily spread. […] These haloes are on the contrary not observed in the presence of LPA and OAG.\nAt the same time, wild strains (WT) and QM are cultivated in aerobic conditions under stirring and at 28° C., in a YPG liquid medium before seeding 3500 cells per cm^2 of YPG+agar 2% (m/v). Following this transfer to solid medium, 1 μL drops of solutions of different compounds at 1, 10 and 100 mM in DMSO or EtOH are deposited on the surface of the agar. Separately, deposits of DMSO and EtOH are also made in order to assess the intrinsic toxicity of these two solvents. After three days of culture of 28° C., the toxicity of the tested compounds is evaluated by comparing the diameters of the growth inhibition haloes obtained for the deposits of undissolved solvents with those of the deposits of different concentrations of compounds tested."}}, "note": "“Also recorded” adds a separate entry of the source."}
{"molecule": "CCCCCCCC/C=C\\CCCCCCCC(=O)OC[C@@H](O)COP(=O)(O)O", "note": "[LPA, 1-oleoyl-sn-glycerol-3-phosphate]", "values": [{"measurement": "apoptosis (proportion of dead cells) of pancreatic β-cells in the presence of saturated fatty acids", "setting": "[1]", "value": "prevent apoptosis"}, {"measurement": "production of di-unsaturated phospholipids (level of PC species 36:2)", "setting": "hem1Δ yeasts", "value": "increase of the level of this species"}, {"measurement": "toxicity for cells that do not synthesize triglycerides", "setting": "QM strain", "value": "not toxic"}, {"measurement": "haloes of growth inhibition (absence of colonies)", "setting": "QM strain", "value": "not observed"}]}
{"molecule": "CCCCCCCC/C=C\\CCCCCCCC(=O)OC[C@H](CO)OC(C)=O", "note": "[OAG, 1-oleoyl-2-acetyl-sn-glycerol]", "values": [{"measurement": "apoptosis (proportion of dead cells) of pancreatic β-cells in the presence of saturated fatty acids", "setting": "[1]", "value": "prevent apoptosis"}, {"measurement": "index of saturation of phospholipids compared with control condition", "setting": "hem1Δ yeasts", "value": "does not restore an index of saturation comparable to the one observed in the control condition"}, {"measurement": "production of di-unsaturated phospholipids (level of PC species 36:2)", "setting": "hem1Δ yeasts", "value": "does not restore the production; also recorded: not the case"}, {"measurement": "toxicity for cells that do not synthesize triglycerides", "setting": "QM strain", "value": "not toxic"}, {"measurement": "haloes of growth inhibition (absence of colonies)", "setting": "QM strain", "value": "not observed"}]}
